Assay results: the supplement of paper PMC10307832

Key:
Assay in all cases: relative viability (nuclei count vs DMSO), 5 days (fraction); higher = more cells survive
IPA-3 + Trametinib = compound: C1=CC=C2C(=C1)C=CC(=C2SSC3=C(C=CC4=CC=CC=C43)O)O [IPA-3] + CC(=O)Nc1cccc(-n2c(=O)n(C3CC3)c(=O)c3c(Nc4ccc(I)cc4F)n(C)c(=O)c(C)c32)c1 [Trametinib] (partner 0.02 µM)
Method in brief: (§1)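 After 5 days of treatment, lung cancer cells in 1536-well plates were fixed and stained in a single step (final 0.05% Triton X-100, 1% formaldehyde, 1 ug/ml Hoechst) and their nuclei counted on 4× images. Treatment had been applied by pin tool the day after seeding as one drug alone or as a fixed anchor-drug dose with five library-drug doses (not always all listed) in √10 steps. Relative viability is the nuclei count of treated wells divided by that of vehicle wells, and values are medians of duplicate plates.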

IPA-3 + Pemetrexed = compound: C1=CC=C2C(=C1)C=CC(=C2SSC3=C(C=CC4=CC=CC=C43)O)O [IPA-3] + Nc1nc2[nH]cc(CCc3ccc(C(=O)N[C@@H](CCC(=O)O)C(=O)O)cc3)c2c(=O)[nH]1 [Pemetrexed] (partner 0.2 µM)
Method in brief: as §1

Doramapimod + Luminespib = compound: Cc1ccc(-n2nc(C(C)(C)C)cc2NC(=O)Nc2ccc(OCCN3CCOCC3)c3ccccc23)cc1 [Doramapimod] + CCNC(=O)c1noc(-c2cc(C(C)C)c(O)cc2O)c1-c1ccc(CN2CCOCC2)cc1 [Luminespib] (partner 0.01 µM)
Method in brief: as §1

Doramapimod + AZD7762 = compound: Cc1ccc(-n2nc(C(C)(C)C)cc2NC(=O)Nc2ccc(OCCN3CCOCC3)c3ccccc23)cc1 [Doramapimod] + NC(=O)Nc1cc(-c2cccc(F)c2)sc1C(=O)N[C@H]1CCCNC1 [AZD7762] (partner 0.2 µM)
Method in brief: as §1

Cell Line	relative viability (IPA-3 + Trametinib; first compound 0.2 µM)	relative viability (IPA-3 + Trametinib; first compound 0.6325 µM)	relative viability (IPA-3 + Trametinib; first compound 2 µM)	relative viability (IPA-3 + Trametinib; first compound 6.325 µM)	relative viability (IPA-3 + Trametinib; first compound 20 µM)	relative viability (IPA-3 + Pemetrexed; first compound 0.2 µM)	relative viability (IPA-3 + Pemetrexed; first compound 0.6325 µM)	relative viability (IPA-3 + Pemetrexed; first compound 2 µM)	relative viability (IPA-3 + Pemetrexed; first compound 6.325 µM)	relative viability (IPA-3 + Pemetrexed; first compound 20 µM)	relative viability (Doramapimod + Luminespib; first compound 0.02 µM)	relative viability (Doramapimod + Luminespib; first compound 0.06325 µM)	relative viability (Doramapimod + Luminespib; first compound 0.2 µM)	relative viability (Doramapimod + Luminespib; first compound 0.6325 µM)	relative viability (Doramapimod + Luminespib; first compound 2 µM)	relative viability (Doramapimod + AZD7762; first compound 0.02 µM)	relative viability (Doramapimod + AZD7762; first compound 0.06325 µM)	relative viability (Doramapimod + AZD7762; first compound 0.2 µM)	relative viability (Doramapimod + AZD7762; first compound 0.6325 µM)	relative viability (Doramapimod + AZD7762; first compound 2 µM)
HOP-62	0.408	0.349	0.414	0.348	0.382	0.333	0.315	0.345	0.313	0.328	0.957	1.04	1.07	0.931	0.797	0.629	0.676	0.585	0.647	0.651
NCI-H650	1.11	0.973	0.888	1.1	1.32	1.22	0.873	1.03	0.852	1.15	0.869	0.83	0.827	0.853	0.713	0.88	1.11	0.941	1.16	1.02
NCI-H358	0.136	0.132	0.134	0.134	0.114	0.168	0.172	0.159	0.162	0.158	0.276	0.424	0.516	0.38	0.208	0.486	0.522	0.438	0.363	0.38
BEN	1.05	1.04	1.15	1.13	1.16	0.751	0.843	0.852	0.814	0.774	0.537	0.56	0.351	0.13	0.352	0.58	0.724	0.72	0.597	0.681
ChaGo-K-1	0.979	0.886	0.917	0.884	1	0.257	0.264	0.272	0.281	0.263	0.594	0.49	0.595	0.52	0.541	0.884	0.846	0.894	0.779	0.768
SW 900	0.939	0.497	0.752	0.675	0.938	0.544	0.456	0.472	0.441	0.527	0.169	0.185	0.162	0.155	0.165	0.569	0.72	0.551	0.76	0.486
NCI-H1755	0.764	0.797	0.739	0.739	0.753	0.621	0.44	0.495	0.399	0.398	0.354	0.426	0.411	0.431	0.22	0.428	0.5	0.379	0.477	0.412
LC-2-ad	0.958	0.943	0.93	0.948	0.889	0.294	0.28	0.285	0.281	0.307	1.02	1.03	1.09	1.15	0.984	0.826	0.916	0.874	0.988	0.84
NCI-H1666	0.902	0.855	0.886	0.924	0.884	0.842	0.853	0.874	0.796	0.83	1.02	1.06	1.06	1.06	1	0.9	0.943	1.01	0.975	0.851
201T	0.73	0.679	0.714	0.744	0.786	0.311	0.349	0.373	0.295	0.338	1.01	1.01	0.99	1.18	1	0.516	0.562	0.447	0.504	0.341
NCI-H1395	1.02	1.03	1.04	1.05	1.13	0.925	0.842	0.822	0.887	0.912	0.621	0.605	0.641	0.79	0.679	0.392	0.39	0.355	0.443	0.349
LU99A	0.608	0.551	0.502	0.553	0.514	0.188	0.189	0.143	0.187	0.175	0.26	0.239	0.239	0.199	0.24	0.349	0.37	0.339	0.339	0.326
NCI-H1437	0.712	0.611	0.483	0.468	0.546	0.298	0.294	0.32	0.323	0.334	1.2	1.21	1.16	1.15	1.2	1.13	1.16	1.23	1.05	1.08
EKVX	0.403	0.314	0.359	0.38	0.376	0.407	0.439	0.429	0.426	0.582	0.92	0.868	0.906	0.914	0.77	0.679	0.676	0.717	0.635	0.678
LCLC-97TM1	0.221	0.206	0.205	0.218	0.223	0.165	0.184	0.164	0.148	0.179	0.789	0.689	0.795	0.705	0.537	0.323	0.328	0.289	0.168	0.304
NCI-H2170	0.958	0.923	0.868	0.846	0.993	0.254	0.28	0.243	0.28	0.273	0.649	0.754	0.64	0.825	0.638	0.828	0.948	0.889	1.07	0.851
